{"source": "ChEMBL document CHEMBL4834430", "about": "“Design and Structure-Activity Relationships of Isothiocyanates as Potent and Selective N-Acylethanolamine-Hydrolyzing Acid Amidase Inhibitors” (J Med Chem, 2021)", "key": {"Cytochrome P450 2C19": {"target": "Cytochrome P450 2C19 (Homo sapiens, UniProt P33261)", "sequence (P33261 whole entry)": "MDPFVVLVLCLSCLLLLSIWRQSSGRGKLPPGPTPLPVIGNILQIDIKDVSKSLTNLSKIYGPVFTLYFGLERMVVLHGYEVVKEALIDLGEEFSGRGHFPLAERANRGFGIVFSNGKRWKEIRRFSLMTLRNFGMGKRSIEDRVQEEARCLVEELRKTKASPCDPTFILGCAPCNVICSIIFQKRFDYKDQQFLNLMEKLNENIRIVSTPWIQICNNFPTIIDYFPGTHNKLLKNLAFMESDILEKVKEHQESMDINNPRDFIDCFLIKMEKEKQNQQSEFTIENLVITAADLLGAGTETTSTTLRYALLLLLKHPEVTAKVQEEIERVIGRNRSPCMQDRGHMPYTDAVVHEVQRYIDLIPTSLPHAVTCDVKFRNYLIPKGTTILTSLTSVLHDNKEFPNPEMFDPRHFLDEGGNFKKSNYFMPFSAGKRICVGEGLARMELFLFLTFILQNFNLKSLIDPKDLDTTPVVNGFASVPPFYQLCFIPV", "test": "Inhibition of CYP2C19 (unknown origin)", "type": "ADME"}, "[1]": {"test": "Mutagenecity in Salmonella typhimurium TA1537 in absence of S9 fraction at 5 to 100 uM by Ames test", "type": "toxicity", "settings": "salmonella enterica subsp. enterica serovar typhimurium, s9, 100 µM; dose 5-100 µM"}, "[2]": {"test": "Mutagenecity in Salmonella typhimurium TA98 in absence of S9 fraction at 5 to 100 uM by Ames test", "type": "toxicity", "settings": "salmonella enterica subsp. enterica serovar typhimurium, s9, 100 µM; dose 5-100 µM"}, "[3]": {"test": "Drug concentration in brain of CD-1 mouse at 2 mg/kg, iv administered as single cassette dose measured after 15 mins", "type": "ADME, organism-based", "settings": "read-out: Ct"}, "[4]": {"test": "Mutagenecity in Salmonella typhimurium TA1535 in presence of S9 fraction at 5 to 100 uM by Ames test", "type": "toxicity, subcellular", "settings": "salmonella enterica subsp. enterica serovar typhimurium, s9, 100 µM; dose 5-100 µM"}, "[5]": {"target": "Cannabinoid receptor 1 (Rattus norvegicus) (UniProt P20272)", "sequence (P20272 whole entry)": "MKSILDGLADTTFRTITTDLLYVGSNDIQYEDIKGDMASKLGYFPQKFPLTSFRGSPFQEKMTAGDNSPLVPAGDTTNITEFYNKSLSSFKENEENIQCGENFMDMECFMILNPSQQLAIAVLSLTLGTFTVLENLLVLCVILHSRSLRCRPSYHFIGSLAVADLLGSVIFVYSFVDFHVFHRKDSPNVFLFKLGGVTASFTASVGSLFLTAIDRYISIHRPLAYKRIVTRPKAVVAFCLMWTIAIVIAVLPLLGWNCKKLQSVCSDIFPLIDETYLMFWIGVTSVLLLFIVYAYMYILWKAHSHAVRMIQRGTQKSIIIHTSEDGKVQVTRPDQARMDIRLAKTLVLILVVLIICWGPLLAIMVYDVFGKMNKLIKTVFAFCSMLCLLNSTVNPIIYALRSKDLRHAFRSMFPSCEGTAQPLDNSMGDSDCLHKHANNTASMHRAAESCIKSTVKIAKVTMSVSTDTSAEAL", "test": "Displacement of [3H]-CP55940 from rat forebrain CB1 receptor at 10 uM"}, "[6]": {"test": "Half life in CD-1 mouse plasma at 2 mg/kg, iv measured up to 8 hrs", "type": "ADME, organism-based"}, "[7]": {"test": "Ratio of drug concentration in brain to plasma in CD-1 mouse at 2 mg/kg, iv", "type": "ADME, organism-based", "settings": "read-out: BPR"}, "Cathepsin K": {"target": "T1, Cathepsin K (Homo sapiens, UniProt P43235)", "T1 sequence (P43235 whole entry)": "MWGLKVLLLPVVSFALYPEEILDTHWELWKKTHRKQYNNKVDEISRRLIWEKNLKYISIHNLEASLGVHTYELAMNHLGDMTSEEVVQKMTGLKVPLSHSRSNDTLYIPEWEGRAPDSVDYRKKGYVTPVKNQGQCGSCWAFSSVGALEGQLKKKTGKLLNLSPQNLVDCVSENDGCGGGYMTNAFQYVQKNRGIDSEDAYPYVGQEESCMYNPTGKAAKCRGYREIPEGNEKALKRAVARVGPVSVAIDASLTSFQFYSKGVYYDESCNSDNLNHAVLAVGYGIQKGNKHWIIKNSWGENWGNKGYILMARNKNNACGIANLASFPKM", "test": "Inhibition of recombinant human Cathepsin K using Z-Phe-Arg-AMC as fluorogenic substrate preincubated for 120 mins followed by substrate addition by fluorescence assay"}, "[8]": {"test": "Mutagenecity in Salmonella typhimurium TA98 in presence of S9 fraction at 5 to 100 uM by Ames test", "type": "toxicity, subcellular", "settings": "salmonella enterica subsp. enterica serovar typhimurium, s9, 100 µM; dose 5-100 µM"}, "[9]": {"test": "AUC in CD-1 mouse brain at 2 mg/kg, iv measured up to 6 hrs", "type": "ADME, organism-based", "set-up": "route intravenous, dose 2 mg/kg, time <=6"}, "[10]": {"test": "Mutagenecity in Salmonella typhimurium TA1535 in absence of S9 fraction at 5 to 100 uM by Ames test", "type": "toxicity", "settings": "salmonella enterica subsp. enterica serovar typhimurium, s9, 100 µM; dose 5-100 µM"}, "[11]": {"test": "MRT in CD-1 mouse plasma at 8 mg/kg, po measured up to 8 hrs", "type": "ADME, organism-based"}, "Cytochrome P450 2D6": {"target": "Cytochrome P450 2D6 (Homo sapiens, UniProt P10635)", "sequence (P10635 whole entry)": "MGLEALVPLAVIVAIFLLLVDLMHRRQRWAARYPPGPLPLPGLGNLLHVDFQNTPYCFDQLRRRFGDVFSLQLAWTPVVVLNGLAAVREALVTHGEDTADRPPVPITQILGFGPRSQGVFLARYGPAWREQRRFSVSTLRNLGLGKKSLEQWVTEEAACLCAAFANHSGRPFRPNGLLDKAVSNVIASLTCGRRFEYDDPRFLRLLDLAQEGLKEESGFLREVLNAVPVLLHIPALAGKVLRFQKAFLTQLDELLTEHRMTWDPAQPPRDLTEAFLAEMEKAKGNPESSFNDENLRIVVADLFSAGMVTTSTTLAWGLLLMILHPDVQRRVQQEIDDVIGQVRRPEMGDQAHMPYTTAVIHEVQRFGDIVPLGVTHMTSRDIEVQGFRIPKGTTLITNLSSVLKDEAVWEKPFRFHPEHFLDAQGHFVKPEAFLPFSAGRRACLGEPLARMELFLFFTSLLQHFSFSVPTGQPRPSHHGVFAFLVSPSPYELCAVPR", "test": "Inhibition of CYP2D6 (unknown origin) at 10 uM", "type": "ADME"}, "[12]": {"test": "Half life in CD-1 mouse plasma at 8 mg/kg, po measured up to 8 hrs", "type": "ADME, organism-based"}, "[13]": {"test": "AUC in CD-1 mouse plasma at 2 mg/kg, iv measured up to 8 hrs", "type": "ADME, organism-based", "set-up": "route intravenous, dose 2 mg/kg, time <=8"}, "[14]": {"test": "Mutagenecity in Salmonella typhimurium TA100 in presence of S9 fraction at 5 to 100 uM by Ames test", "type": "toxicity, subcellular", "settings": "salmonella enterica subsp. enterica serovar typhimurium, s9, 100 µM; dose 5-100 µM"}, "[15]": {"test": "Clearance in CD-1 mouse plasma at 2 mg/kg, iv measured up to 8 hrs", "type": "ADME, organism-based"}}, "note": "Active and inactive are the calls of the source. The rule behind the calls is not given here.", "data": [{"smiles": "COc1ccc(-c2ccc(CO[C@H]3C[C@@H](N=C=S)C3)nc2)cc1F", "values": [{"measurement": "IC50", "setting": "Cytochrome P450 2C19", "value": 3300, "unit": "nM"}, {"measurement": "Activity", "setting": "[1]", "value": "Non-Toxic"}, {"measurement": "Activity", "setting": "[2]", "value": "Non-Toxic"}, {"measurement": "concentration at 0.25 h", "setting": "[3]", "value": 873, "unit": "ng/g"}, {"measurement": "Activity", "setting": "[4]", "value": "Non-Toxic"}, {"measurement": "inhibition", "setting": "[5]", "value": "inactive"}, {"measurement": "half-life", "setting": "[6]", "value": 45.5, "unit": "min"}, {"measurement": "Kp", "setting": "[7]", "value": 3.8}, {"measurement": "IC50", "setting": "Cathepsin K", "value": 120, "unit": "nM"}, {"measurement": "Activity", "setting": "[8]", "value": "Non-Toxic"}, {"measurement": "AUC at 6 h", "setting": "[9]", "value": 298, "unit": "ng·h/mL"}, {"measurement": "Activity", "setting": "[10]", "value": "Non-Toxic"}, {"measurement": "MRT", "setting": "[11]", "value": 64.2, "unit": "min"}, {"measurement": "inhibition (INH)", "setting": "Cytochrome P450 2D6", "value": "Not Active"}, {"measurement": "half-life", "setting": "[12]", "value": 31.5, "unit": "min"}, {"measurement": "AUC at 8 h", "setting": "[13]", "value": 78.5, "unit": "ng·h/mL"}, {"measurement": "Activity", "setting": "[14]", "value": "Non-Toxic"}, {"measurement": "clearance", "setting": "[15]", "value": 412, "unit": "mL/min/kg"}]}]}
